Experimental data published in patent US20230000811A1, “COMPOSITIONS FOR DISRUPTING BIOFILM FORMATION AND FOR TREATING BIOFILM-RELATED DISORDERS” (AHV International B.V., priority 2020, published 2023).

Experiments:
Format in all cases: cell-based
Streptococcus uberis [1] = assay: MBEC (biofilm eradication); conditions: Str. uberis clinical isolate
Description: (§1) In this example the following bacterial strains were used: Staphyllococcus aureus ATCC 25923 obtained from the ATCC collection; Staphyllococcus aureus 074 was kindly provided by prof. Fink, Faculty of Veterinary Medicine, Utrecht University, the Netherlands, described as a clinical isolate from cows with mastitis. Information for the strain is further given in: Melchior, M. B., Fink-Gremmels, J., & Gaastra, W. (2006). Comparative Assessment of the Antimicrobial Susceptibility of Staphylococcus aureus Isolates from Bovine Mastitis in Biofilm Versus Planktonic Culture. Journal of Veterinary Medicine Series B, 53(7), 326-332; Staphyllococcus aureus ATCC 15564 obtained from the ATCC collection and Streptococcus uberis clinical isolate from a cow with mastitis, part from the collection of Department of Veterinary Microbiology, Infectious and Parasitic Diseases, Trakia University, Bulgary.
(§2) Minimum Biofilm Inhibitory Concentration (MBIC) and Microtiter Biofilm Eradication concentration (MBEC) are defined and measured as indicated in table 7.
(§3) Applying the methods as summarised in table 7, the above-mentioned bacteria were tested with PTSO/PTS enriched plant extract, pure PTSO, and pure PTS as described in example 1 and DPD as described in example 2.

[2] = tested on: Staphylococcus aureus strains; assay: MBEC (biofilm eradication)
Description: as §1, §2, §3

[3] = tested on: heterotrophic microbial biofilm; assay: Biofilm eradication in PBR (photobioreactor), released CFU's
Experimental: In order to determine the anti-biofilm effect of PTSO, PTS and DPD (dipropyl disulfide), a biofilm was grown under controlled conditions in a glass tube reactor, the PBR. A photobioreactor was used as model system because biofilm formation was clearly visible in the glass tubes. After a mature biofilm was formed, increasing levels of pure PTSO, PTS or DPD were added and the biofilm was removed by titration of pure PTSO, PTS or DPD and the dosages were determined that the biofilm was eradicated. Hereafter, the microbial composition was determined of the biofilm by deep sequencing.
Heterotrophic microbial biofilm: a biofilm was cultivated in a 26.5-liter glass photobioreactor (PBR) with a tube length of 37-meter incl. bends (the GemTube RD-25 Glass of LGEM). The PBR was filled with 22 liters of not sterilized medium (fable 1).
The medium further contained 1 g/l glucose. Inoculation took place by the adding 500 ml ditch water from the Zuidpolder near Delfgauw. Air was pumped in with a rate of 1.0 liter/min: at this setting the medium circulation through the PBR in the medium was as low as possible but there was a stable hold-up to realize medium circulation in the PBR. The PBR was covered with a dark plastic screen to prevent exposure to the light. Incubation took place at 12-18° C. and pH was controlled 5 times per week to 5.2-5.7, once per 1.5 day. After a total dosage of 5 g/l glucose, (after 1 week) a slimy layer (biofilm) was formed that covers the whole inner surface of the glass tube. The medium was replaced by fresh medium without glucose when the biofilm was formed.
Pure PTSO and PTS were obtained as is indicated in example 1 and stable solutions were prepared in water by sonication of 1000× diluted mixtures. DPD (dipropyl disulfide >98% pure) was supplied by Sigma. After each addition step the biofilm culture was incubated for 24 hours to observe the stability of the biofilm.
The numbers of aerobic, anaerobic/micro-aerophilic and fungal CFU's in the biofilm and supernatant were determined according to standard operating procedures as follows: for aerobic colony forming units per ml (CFU/ml) see https://www.iso.org/standard/53728.html; for the determination of anaerobic CFU's/ml see https://www.thermofisher.com/order/catalog/product/AN0025A#HAN0025A (the plates are incubated in an oxygen-free container) and with respect to the numbers of colony forming unites for fungi see http://edgeanalytical.com/wp-content/uploads/Food_AOAC-997.02.pdf (see Table 2).
Another sample of the biofilm was drawn and a part was stored at minus 80 degrees as inoculum material for further studies. The other part of the biofilm was dissolved by gentle sonification and used to determine the aerobic, anaerobic and fungal numbers of colony forming units as described above. Hereafter it was calculated whether the numbers of colony forming microorganisms in the medium corresponded with the number of microorganisms in the biofilm prior to the treatment. In this way it was calculated whether the microorganisms were killed by the treatments, or that the bacteria remained alive and that only the biofilm was solubilized.
In order to investigate whether PTSO has a destabilizing effect of the biofilm or simply kills the microorganisms, samples were drawn from the biofilm before the treatments and samples of the liquid medium were drawn before and after treatment and were inoculated as described above to determine the number of colony forming units. Hereafter it was calculated whether the numbers of colony forming microorganisms in the medium corresponded with the number of microorganisms in the biofilm prior to the treatment. In this way it was calculated whether the microorganisms are killed by the treatments, or that the bacteria remained alive and that only the biofilm was solubilized (fable 6).

Streptococcus uberis [4] = assay: MBIC 90 (minimum biofilm inhibitory concentration); conditions: Str. uberis clinical isolate
Description: as §1, §2, §3

[5] = tested on: Staphylococcus aureus strains; assay: MBIC 90 (minimum biofilm inhibitory concentration)
Description: as §1, §2, §3

[6] = PTSO cumulative dosage 0.05 ul/l culture (dose 0.05), day 2
[7] = PTSO cumulative dosage 0.15 ul/l culture (dose 0.1), day 6
[8] = PTSO cumulative dosage 0.65 ul/l culture (dose 0.5), day 8
[9] = PTSO cumulative dosage 1.65 ul/l culture (dose 1.0), day 13
[10] = PTSO cumulative dosage 3.65 ul/l culture (dose 2.0), day 15
[11] = after 208 mg pure DPD/liter culture
[12] = total dose DPD (cumulative) 1 ul/l (dose 0.50)
[13] = total dose DPD (cumulative) 2 ul/l (dose 1.00)
[14] = total dose DPD (cumulative) 7 ul/l (dose 5.00)
[15] = total dose DPD (cumulative) 17 ul/l (dose 10.00)
[16] = total dose DPD (cumulative) 67 ul/l (dose 50.00)
[17] = total dose DPD (cumulative) 117 ul/l (dose 50.00)
[18] = total dose DPD (cumulative) 167 ul/l (dose 50.00)
[19] = total dose DPD (cumulative) 217 ul/l (dose 50.00)
[20] = total dose DPD (cumulative) 267 ul/l (dose 50.00)
[21] = total dose DPD (cumulative) 317 ul/l (dose 50.00)
[22] = total dose DPD (cumulative) 367 ul/l (dose 50.00)
[23] = total dose DPD (cumulative) 417 ul/l (dose 50.00)
[24] = total dose DPD (cumulative) 467 ul/l (dose 50.00)
[25] = total dose DPD (cumulative) 517 ul/l (dose 50.00)

CCCSS(=O)(=O)CCC (single isomer, unassigned) [PTSO, propyl-propane thiosulfonate]
MBEC (biofilm eradication) (Streptococcus uberis [1]): 512 µg/mL
MBEC (biofilm eradication) ([2]; St. aureus 074): 256 µg/mL
MBEC (biofilm eradication) ([2]; St. aureus ATCC 15564): 256 µg/mL
MBEC (biofilm eradication) ([2]; St. aureus ATCC 25923): 512 µg/mL
Aerobic CFU's after 24 hours [3, 6]: 2,033 ×1000
Anaerobic CFU's after 24 hour [3, 6]: 383 ×1000
Fungal CFU's after 24 hours [3, 6]: 150 ×1000
Aerobic CFU's after 24 hours [3, 7]: 3,367 ×1000
Anaerobic CFU's after 24 hour [3, 7]: 750 ×1000
Fungal CFU's after 24 hours [3, 7]: 150 ×1000
Aerobic CFU's after 24 hours [3, 8]: 6,267 ×1000
Anaerobic CFU's after 24 hour [3, 8]: 1,127 ×1000
Fungal CFU's after 24 hours [3, 8]: 517 ×1000
Aerobic CFU's after 24 hours [3, 9]: 17,333 ×1000
Anaerobic CFU's after 24 hour [3, 9]: 4,400 ×1000
Fungal CFU's after 24 hours [3, 9]: 20,333 ×1000
Aerobic CFU's after 24 hours [3, 10]: 5,867 ×1000
Anaerobic CFU's after 24 hour [3, 10]: 2,933 ×1000
Fungal CFU's after 24 hours [3, 10]: 1,567 ×1000
Total (released from biofilm) colony forming units/ml, In culture supernatant ([3]; after 0.9 mg pure PTSO/liter culture): 42,000 units/ml (×1000)
Total colony forming units/ml, In biofilm ([3]; after 0.9 mg pure PTSO/liter culture, 0* means biofilm had disappeared): 0* units/ml (×1000)
% volume biofilm in relation to culture volume ([3]; after 0.9 mg pure PTSO/liter culture, before start treatment 18): 0%
total dosage at which the biofilm became significantly thinner ([3]; mature biofilm in PBR, visual observation): 0.65 ul/l
total dosage at which disintegration / release of the biofilm becomes visible ([3]; mature biofilm in glass tube PBR, visual observation): 0.05 ul/l
MBIC 90 (Streptococcus uberis [4]): 128 µg/mL
MBIC 90 ([5]; St. aureus 074): 128 µg/mL
MBIC 90 ([5]; St. aureus ATCC 15564): 128 µg/mL
MBIC 90 ([5]; St. aureus ATCC 25923): 128 µg/mL

CCCSSCCC [DPD, dipropyl disulfide]
MBEC (biofilm eradication) (Streptococcus uberis [1]): >1024 µg/mL
MBEC (biofilm eradication) ([2]; St. aureus 074): 1024 µg/mL
MBEC (biofilm eradication) ([2]; St. aureus ATCC 15564): >1024 µg/mL
MBEC (biofilm eradication) ([2]; St. aureus ATCC 25923): >1024 µg/mL
state of the biofilm at the highest dosages (visual) ([3]; PBR, highest dosage(s) added): did not remove the remainder of the thin biofilm
Total (released from biofilm) colony forming units/ml, In culture supernatant [3, 11]: 3,403 units/ml (×1000)
Total colony forming units/ml, In biofilm [3, 11]: 0 units/ml (×1000)
% volume biofilm in relation to culture volume ([3]; after 208 mg pure DPD/liter culture, before start treatment 7): 0%
total addition at which the biofilm started to release from the glass ([3]; after dose 8, visual observation): 160 mg pure DPD/liter
Aerobic CFU's after 24 hours [3, 12]: 400000 ×1000
Anaerobic CFU's after 24 hour [3, 12]: 45333 ×1000
Fungal CFU's after 24 hours [3, 12]: 33333 ×1000
Aerobic CFU's after 24 hours [3, 13]: 440000 ×1000
Anaerobic CFU's after 24 hour [3, 13]: 43333 ×1000
Fungal CFU's after 24 hours [3, 13]: 29000 ×1000
Aerobic CFU's after 24 hours [3, 14]: 390000 ×1000
Anaerobic CFU's after 24 hour [3, 14]: 43333 ×1000
Fungal CFU's after 24 hours [3, 14]: 35000 ×1000
Aerobic CFU's after 24 hours [3, 15]: 403333 ×1000
Anaerobic CFU's after 24 hour [3, 15]: 39333 ×1000
Fungal CFU's after 24 hours [3, 15]: 25333 ×1000
Aerobic CFU's after 24 hours [3, 16]: 376667 ×1000
Anaerobic CFU's after 24 hour [3, 16]: 40333 ×1000
Fungal CFU's after 24 hours [3, 16]: 24000 ×1000
Aerobic CFU's after 24 hours [3, 17]: 426667 ×1000
Anaerobic CFU's after 24 hour [3, 17]: 37667 ×1000
Fungal CFU's after 24 hours [3, 17]: 22333 ×1000
Aerobic CFU's after 24 hours [3, 18]: 563333 ×1000
Anaerobic CFU's after 24 hour [3, 18]: 43000 ×1000
Fungal CFU's after 24 hours [3, 18]: 18333 ×1000
Aerobic CFU's after 24 hours [3, 19]: 1766667 ×1000
Anaerobic CFU's after 24 hour [3, 19]: 267000 ×1000
Fungal CFU's after 24 hours [3, 19]: 18667 ×1000
Aerobic CFU's after 24 hours [3, 20]: 1413333 ×1000
Anaerobic CFU's after 24 hour [3, 20]: 340000 ×1000
Fungal CFU's after 24 hours [3, 20]: 17000 ×1000
Aerobic CFU's after 24 hours [3, 21]: 936667 ×1000
Anaerobic CFU's after 24 hour [3, 21]: 100000 ×1000
Fungal CFU's after 24 hours [3, 21]: 223333 ×1000
Aerobic CFU's after 24 hours [3, 22]: 163333 ×1000
Anaerobic CFU's after 24 hour [3, 22]: 35667 ×1000
Fungal CFU's after 24 hours [3, 22]: 273333 ×1000
Aerobic CFU's after 24 hours [3, 23]: 107333 ×1000
Anaerobic CFU's after 24 hour [3, 23]: 19333 ×1000
Fungal CFU's after 24 hours [3, 23]: 24333 ×1000
Aerobic CFU's after 24 hours [3, 24]: 103333 ×1000
Anaerobic CFU's after 24 hour [3, 24]: 9333 ×1000
Fungal CFU's after 24 hours [3, 24]: 12667 ×1000
Aerobic CFU's after 24 hours [3, 25]: 98333 ×1000
Anaerobic CFU's after 24 hour [3, 25]: 5467 ×1000
Fungal CFU's after 24 hours [3, 25]: 8000 ×1000
total dosage up to which biofilm release continued ([3]; visual observation): 317 ul pure DPD/liter
MBIC 90 (Streptococcus uberis [4]): >1024 µg/mL
MBIC 90 ([5]; St. aureus 074): >1024 µg/mL
MBIC 90 ([5]; St. aureus ATCC 15564): >1024 µg/mL
MBIC 90 ([5]; St. aureus ATCC 25923): >1024 µg/mL
